Laboratory results as given in US5665745A, “Heterocyclic compounds and their preparation and use” (Eli Lilly and Company, priority 1995, dated 1997).
pIC50: −log10 of the molar value. Like-named read-outs stand apart in the source and are kept apart here.

Key:
[1] = target: muscarinic acetylcholine receptors; test: inhibition of specific binding of ^3 H-Oxotremorine-M (^3 H-Oxo); set-up: species or system rat (male Wistar; conditions: ^3 H-Oxotremorine 1.0 nM, rat cortex, 30 min. at 25° C.
Description: The pharmacological properties of the compounds of the invention can be illustrated by determining their capability to inhibit the specific binding of ^3 H-Oxotremorine-M (^3 H-Oxo). Birdsdall N. J. M., Hulme E. C., and Burgen A. S. V. (1980). "The Character of Muscarinic Receptors in Different Regions of the Rat Brain" Proc. Roy. Soc. London (Series B) 207,1.
^3 H-Oxo labels muscarinic receptor in the CNS (with a preference for agonist domains of the receptors). Three different sites are labeled by ^3 H-Oxo. […] Using the present experimental conditions only the high and medium affinity sites are determined.
The inhibitory effects of compounds on ^3 H-oxo binding reflects the affinity for muscarinic acetylcholine receptors.
(§1) All preparations are performed at 0°-4° C. unless otherwise indicated. Fresh cortex (0.1-1 g) from male Wistar rats (150-250 g) is homogenized for 5-10 seconds in 10 mL 20 nM Hepes pH: 7.4, with an Ultra-Turrax homogenizer. The homogenizer is rinsed with 10 mL of buffer and the combined suspension centrifuged for 15 min. at 40,000×g. The pellet is washed three times with buffer. In each step the pellet is homogenized as before in 2×10 mL of buffer and centrifuged for 10 min. at 40,000×g.
The final pellet is homogenized in 20 mM Hepes pH: 7.4 (100 mL per g of original tissue) and used for binding assay. Aliquots of 0.5 mL is added 25 μL of test solution and 25 μL of ^3 H-Oxotremorine (1.0 nM, final concentration) mixed and incubated for 30 min. at 25° C. Non-specific binding is determined in triplicate using arecoline ([…], final concentration) as the test substance. After incubation samples are added 5 mL of ice-cold buffer and poured directly onto Whatman GF/C glass fiber filters under suction and immediately washed 2 times with 5 mL of ice-cold buffer. The amount of radioactivity on the filters are determined by conventional liquid scintillation counting. Specific binding is total binding minus non specific binding.
Test substances are dissolved in 10 mL water (if necessary heated on a steam-bath for less than 5 min.) at a concentration of 2.2 mg/mL. […] The test value will be given as IC50 (the concentration (nM) of the test substance which inhibits the specific binding of ^3 H-oxo by 50%). IC50 =(applied test substance concentration) x(Cx /Co -Cx)nM where Co is specific binding in control assays and Cx is the specific binding in the test assay. (The calculations assume normal mass-action kinetics).

[2] = target: T1, muscarinic receptors (M1 -site, pirenzepine sensitive site) (Rattus norvegicus, UniProt P08482); test: inhibition of ^3 HPRZ (pirenzepine, [N-methyl-^3 H]) binding to rat cerebral cortex membranes; set-up: species or system rat (male Wistar
T1 construct: from tissue; host or cells: cerebral cortex membranes of male Wistar rats
T1 sequence (P08482 1-460): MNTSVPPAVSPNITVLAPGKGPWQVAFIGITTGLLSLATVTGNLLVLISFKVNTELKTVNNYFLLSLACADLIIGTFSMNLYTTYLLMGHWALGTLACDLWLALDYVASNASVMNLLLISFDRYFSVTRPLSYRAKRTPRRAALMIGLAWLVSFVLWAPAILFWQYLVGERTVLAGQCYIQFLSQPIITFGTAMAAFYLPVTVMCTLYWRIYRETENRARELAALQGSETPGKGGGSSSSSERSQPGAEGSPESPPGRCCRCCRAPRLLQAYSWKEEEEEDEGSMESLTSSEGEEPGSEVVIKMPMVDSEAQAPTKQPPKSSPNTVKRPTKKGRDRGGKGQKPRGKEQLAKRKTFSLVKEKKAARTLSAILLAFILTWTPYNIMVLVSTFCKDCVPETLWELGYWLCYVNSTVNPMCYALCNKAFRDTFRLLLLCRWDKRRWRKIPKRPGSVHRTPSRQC
Protocol: Furthermore the pharmacological properties of the compounds of the invention can also be illustrated by determining their capability to inhibit ^3 HPRZ (pirenzepine, [N-methyl-^3 H]) binding to rat cerebral cortex membranes.
Pirenzepine binds selectively to subtype of muscarinic receptors. Historically the type is named the M1 -site, whereas pirenzepine sensitive site would be more appropriate.
as §1, with “cortex ([…])” for “cortex (0.1-1 g)”, “rats (150-200” for “rats (150-250”, “5-10 s” for “5-10 seconds”, “20 mM” for “20 nM”, “with 2×10” for “with 10”, “in 3×10” for “in 2×10”
The final pellet is homogenized in 20 mM Hepes pH: 7.4 (100 mL per g of original tissue) and used for binding assay. Aliquots of 0.5 mL is added 20 μl of test solution and 25 μL of ^3 HPRZ (1.0 nM, final conc.), mixed and incubated for 60 min. at 20° C. Non-specific binding is determined in triplicate using atropine (1 ,μg/mL, final conc.) as the test substance. After incubation samples are added 5 mL of ice-cold buffer and poured directly onto Whatman GF/C glass fiber filters under suction and immediately washed 2 times with 5 mL of ice-cold buffer. The amount of radioactivity on the filters are determined by conventional liquid scintillation counting. Specific binding is total binding minus non-specific binding.
Test substances are dissolved in 10 mL water, at a concentration of 0.22 mg/mL.
The test value will be given as IC50 (the concentration (nM) of the test substance which inhibits the specific binding of ^3 HPRZ by 50%). IC50 =(applied test substance concentration) x(Cx /Co -Cx)nM where Co is specific binding in control assays and Cx is the specific binding in the test assay. (The calculations assume normal mass-action kinetics).

[3] = ^3 HPRZ 1.0 nM, rat cortex, 60 min. at 20° C., read-out: ^3 HPRZ IC50 (head from b208 on: Pir IC-50)

Structure (SMILES) | pIC50 [1] | pIC50 [2] | pIC50 [2, 3]
C/C=C\COc1nsnc1OC1CN2CCC1CC2 (mixture of isomers) [Compound 110, (±)-3-(cis-2-butenyloxy)-4-(1-azabicyclo[2.2.2]octyl-3-oxy)-1,2,5-thiadiazole] | 7.88 | 7.30 | 
c1ccc(CCCSc2nsnc2O[C@H]2CN3CCC[C@@H]2C3)cc1 (relative stereo) [Compound 72, (±)3-(3-Phenylpropylthio)-4-[endo-6-(1-azabicyclo[3.2.1].cent.octyloxy)]-1,2,5-thiadiazole] | 8.72 |  | 9.26
c1ccc(OCCOc2nsnc2O[C@@H]2CN3CCC[C@H]2C3)cc1 (relative stereo) [Compound 191, (±)-endo-3-(2-Phenoxyethoxy)-4-(1-azabicyclo[3.2.1]octyl-6-oxy)-1,2,5-thiadiazole] | 8.85 |  | 8.02
CSc1ccc(COc2nsnc2O[C@@H]2CN3CCC[C@H]2C3)cc1 (relative stereo) [Compound 172, (±)-endo-3-(4-Methylthiobenzyloxy)-4-(1-azabicyclo[3.2.1]octyl-6-oxy)-1,2,5-thiadiazole] | 8.28 |  | 8.00
CC(C)CCCSc1nsnc1OC1CN2CCC1CC2 (racemic) [Compound 39, (±)-3-(4-Methylpentylthio)-4-(1-azabicyclo[2.2.2]octyl-3-oxy)-1,2,5-thiadiazole] | 7.89 | 7.82 | 
C(CC1CC1)Oc1nsnc1OC1CN2CCC1CC2 (racemic) [Compound 114, (±)-3-(2-Cyclopropylethoxy)-4-(1-azabicyclo[2.2.2]octyl-3-oxy)-1,2,5-thiadiazole] | 8.03 | 7.37 | 
c1ccc2c(c1)Sc1ccccc1N2CCCSc1nsnc1OC1CN2CCC1CC2 (racemic) [Compound 151, (±)-3-(3-[N-phenothiazinyl]propylthio)-4-(1-azabicyclo[2.2.2]octyl-3-oxy)-1,2,5-thiadiazole] | 5.68 |  | 5.57
CC#CCOc1nsnc1OC1CN2CCC1CC2 (racemic) [Compound 105, (±)-3-(2-butynyloxy)-4-(1-azabicyclo[2.2.2]octyl-3-oxy)-1,2,5-thiadiazole] | 8.10 | 7.18 | 
CCCCCCc1nsnc1OC1CN2CCC1CC2 (racemic) [Compound 101, (±)-3-Hexyl-4-(1-azabicyclo[2.2.2]octyl-3-oxy)-1,2,5-thiadiazole] | 7.06 | 7.44 | 
CCOc1nsnc1OC1CN2CCC1CC2 (racemic) [Compound 6, (±)-3-Ethoxy-4-(1-azabicyclo[2.2.2]octyl-3-oxy)-1,2,5-thiadiazole] | 7.77 | 7.49 | 
CCCS(=O)(=O)c1nsnc1OC1CN2CCC1CC2 (racemic) [Compound 103, (±)-3-propylsulfonyl-4-(1-azabicyclo[2.2.2]octyl-3-oxy)-1,2,5-thiadiazole] | 6.97 |  | 6.94
CCCCSc1nsnc1OC1CCN(C)CC1 [Compound 30, 3-Butylthio-4-(1-methyl-4-piperidyloxy)-1,2,5-thiadiazole] | 7.16 |  | 7.72
c1csc(Sc2nsnc2OC2CN3CCC2CC3)c1 (racemic) [Compound 60, (±)-3-(2-Thienyl)thio)-4-(1-azabicyclo[2.2.2]octyl-3-oxy)-1,2,5-thiadiazole] | 7.72 | 7.85 | 
CCCCSc1nsnc1OC1CCCN(C)C1 (racemic) [Compound 29, (±)-3-Butylthio-4-(1-methyl-3-piperidyloxy)-1,2,5-thiadiazole] | 7.47 |  | 7.70
c1ccc(SCCOc2nsnc2OC2CN3CCC2CC3)cc1 (racemic) [Compound 126, (±)-3-(2-[Phenylthio]ethoxy)-4-(1-azabicyclo[2.2.2]octyl-3-oxy)-1,2,5-thiadiazole] | 7.72 | 7.14 | 
CCCCOc1nsnc1O[C@@H]1CCC[C@@H]1N [Compound 135, 3-Butyloxy-4-(cis-1R-2-aminocyclopentanoxy)-1,2,5-thiadiazole] | < 6.00 |  | < 6.00
CCCCS(=O)(=O)c1nsnc1OC1CN2CCC1CC2 (racemic) [Compound 102, (±)-3-Butylsulfonyl-4-(1-azabicyclo[2.2.2]octyl-3-oxy)-1,2,5-thiadiazole] | 6.42 |  | 6.73
CCCOc1nsnc1OC1CN2CCC1CC2 (racemic) [Compound 7, (±)-3-propyloxy-4-(1-azabicyclo[2.2.2]octyl-3-oxy)-1,2,5-thiadiazole] | 7.97 | 7.59 | 
c1csc(CCOc2nsnc2O[C@@H]2CN3CCC[C@H]2C3)c1 (relative stereo) [Compound 189, (±)-endo-3-[2-(2-Thienyl)ethoxy]-4-(1-azabicyclo[3.2.1]octyl-6-oxy)-1,2,5-thiadiozole] | 8.77 |  | 8.42
O=C(CCSc1nsnc1OC1CN2CCC1CC2)c1ccc(F)cc1 (racemic) [Compound 150, (±)-3-(3-[4-Fluorophenyl]propan-3-onethio)-4-(1-azabicyclo[2,2.2]octyl-3-oxy)-1,2,5-thiadiazole] | 7.77 | 7.44 | 
CC(Oc1nsnc1OC1CN2CCCC1C2)C1CC1 (mixture of isomers) [Compound 199, (±)-endo-3-(1-cyclopropylethoxy)-4-(1-azabicyclo[3.2.1]octyl-6-oxy)-1,2,5-thiadiazole] | 8.48 |  | 8.27
Fc1ccc(OC(CCSc2nsnc2OC2CN3CCC2CC3)c2ccc(F)cc2)cc1 (racemic) [Compound 152, (±)-3-(3-[4-fluorophenyl]-3-[4-fluorophenoxy]propylthio)-4-(1-azabicyclo[2.2.2]octyl-3-oxy)-1,2,5-thiadiazole] | 6.36 |  | 6.61
C1CC(COc2nsnc2OC2CN3CCC2CC3)C1 (racemic) [Compound 124, (±)-3-(Cyclobutylmethoxy)-4-(1-azabicyclo[2.2.2]octyl-3-oxy)-1,2,5-thiadiazole] | 8.24 | 7.27 | 
Clc1ccc(OCCOc2nsnc2OC2CN3CCC2CC3)cc1 (racemic) [Compound 118, (±)-3-(2-[4-Chlorophenoxy]ethoxy)-4-(1-azabicyclo[2.2.2]octyl-3-oxy)-1,2,5-thiadiazole] | 8.14 | 7.15 | 
